From patent EP4667458A1 (Kanaph Therapeutics Inc., priority 2023, dated 2024)

Legend:
[1] = test system: lung cancer cell line NCI-H358 having the KRAS G12C variant; experiment: Cell viability (Cell Titer-Glo) on combined administration, NCI-H358; assay type: cell-based
Description: When the example compound was used in combination with an anticancer agent, the effect on the growth ability of cancer cells expressing KRAS variant or EGFR variant was confirmed. In order to confirm the effect of the example compound in combination with a MEK inhibitor or a KRAS G12C inhibitor in the cell line having the KRAS variant, the cell growth inhibitory effect by the treatment of the example compound in combination with a MEK inhibitor or a KRAS G12C inhibitor was confirmed in the gastric cancer cell line SNU-1 and the pancreatic cancer cell line KP4 having the KRAS G12D variant, the lung cancer cell line NCI-H358 and the pancreatic cancer cell line MIA PaCa-2 having the KRAS G12C variant, the colorectal cancer cell line SW480 having the KRAS G12V variant, the lung cancer cell line A549 having the KRAS G12S variant, the colorectal cancer cell line LoVo having the KRAS G13D variant. In addition, in order to confirm the effect of the example compound in combination with an EGFR inhibitor in the cell line having the EGFR variant, the cell growth inhibitory effect by the treatment of the example compound in combination with an EGFR inhibitor was confirmed in the lung cancer cell line H1975 having the EGFR L858R/T790M variant and the lung cancer cell line HCC827 having the EGFR Del19 variant. […]

KRAS^G12C::SOS1 = target: T1, KRAS^G12C::SOS1 (Homo sapiens, UniProt Q07889); experiment: KRAS G12C::SOS1 protein-protein interaction (PPI) inhibition assay (HTRF binding kit)
T1 sequence (Q07889 1-1333): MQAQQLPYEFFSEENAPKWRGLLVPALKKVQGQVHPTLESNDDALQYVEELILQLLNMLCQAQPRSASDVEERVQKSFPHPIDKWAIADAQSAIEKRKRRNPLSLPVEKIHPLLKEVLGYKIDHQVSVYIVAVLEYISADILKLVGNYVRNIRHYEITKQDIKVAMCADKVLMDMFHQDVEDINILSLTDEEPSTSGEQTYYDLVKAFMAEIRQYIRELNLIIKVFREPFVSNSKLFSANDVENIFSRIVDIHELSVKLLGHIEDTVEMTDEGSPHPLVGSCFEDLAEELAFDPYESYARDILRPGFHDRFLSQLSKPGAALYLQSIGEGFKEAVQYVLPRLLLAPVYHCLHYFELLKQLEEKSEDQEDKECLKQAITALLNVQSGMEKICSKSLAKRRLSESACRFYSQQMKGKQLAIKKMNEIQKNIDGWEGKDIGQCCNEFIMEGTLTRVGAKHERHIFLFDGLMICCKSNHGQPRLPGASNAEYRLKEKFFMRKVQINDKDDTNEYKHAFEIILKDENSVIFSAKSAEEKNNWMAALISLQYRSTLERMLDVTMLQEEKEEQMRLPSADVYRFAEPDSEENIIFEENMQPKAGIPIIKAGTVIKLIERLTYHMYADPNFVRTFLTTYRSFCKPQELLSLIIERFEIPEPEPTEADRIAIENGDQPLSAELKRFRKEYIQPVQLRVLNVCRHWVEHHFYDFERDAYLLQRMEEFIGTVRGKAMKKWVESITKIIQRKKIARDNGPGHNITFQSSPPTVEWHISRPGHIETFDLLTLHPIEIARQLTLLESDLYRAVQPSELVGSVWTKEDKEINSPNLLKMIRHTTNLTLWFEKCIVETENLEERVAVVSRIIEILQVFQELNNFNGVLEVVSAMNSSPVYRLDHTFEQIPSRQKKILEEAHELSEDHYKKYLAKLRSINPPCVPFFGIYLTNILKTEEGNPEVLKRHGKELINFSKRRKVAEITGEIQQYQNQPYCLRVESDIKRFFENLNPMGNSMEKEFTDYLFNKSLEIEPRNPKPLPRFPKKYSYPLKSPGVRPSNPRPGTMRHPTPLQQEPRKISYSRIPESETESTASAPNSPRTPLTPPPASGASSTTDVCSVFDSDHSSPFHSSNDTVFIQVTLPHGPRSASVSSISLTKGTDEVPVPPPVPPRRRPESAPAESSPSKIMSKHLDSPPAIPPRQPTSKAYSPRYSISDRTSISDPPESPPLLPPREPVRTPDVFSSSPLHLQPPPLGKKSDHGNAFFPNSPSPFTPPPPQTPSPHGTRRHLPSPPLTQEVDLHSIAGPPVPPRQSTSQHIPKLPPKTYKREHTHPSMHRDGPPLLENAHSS

SOS1 = target: T2, SOS1 (Homo sapiens, UniProt Q07889); experiment: SOS-catalyzed nucleotide exchange assay (HTRF, SOS1-mediated GTP loading of KRAS G12D); assay type: biochemical
T2 construct: adding equal amounts of HIS-SOS1cat (160 nM; Cytoskeleton, US); His; purchased Cytoskeleton, US
T2 sequence (Q07889 564-1049 limits assumed): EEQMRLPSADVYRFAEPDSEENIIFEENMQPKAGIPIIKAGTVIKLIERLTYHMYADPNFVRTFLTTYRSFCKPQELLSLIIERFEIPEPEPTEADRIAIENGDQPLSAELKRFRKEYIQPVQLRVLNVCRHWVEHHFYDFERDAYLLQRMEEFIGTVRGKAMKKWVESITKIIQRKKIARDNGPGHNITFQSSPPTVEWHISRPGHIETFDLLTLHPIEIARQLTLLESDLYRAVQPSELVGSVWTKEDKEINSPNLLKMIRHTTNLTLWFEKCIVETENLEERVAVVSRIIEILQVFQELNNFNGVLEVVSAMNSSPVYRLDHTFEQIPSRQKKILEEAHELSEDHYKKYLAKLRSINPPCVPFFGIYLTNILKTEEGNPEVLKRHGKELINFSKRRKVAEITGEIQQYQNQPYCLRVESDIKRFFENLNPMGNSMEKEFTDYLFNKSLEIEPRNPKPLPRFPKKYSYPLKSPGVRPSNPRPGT
Outline: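 SOS1cat (HIS-tagged) preincubated 10 min at room temperature with compound (128 pM-10 µM), then GST-KRAS G12D with anti-GST terbium added; GTP loading tracked as HTRF with a DY-647P1 GTP analogue after 30 min, buffer HEPES pH 7.4. GEF-free wells for normalization; IC50 derived.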

[2] = test system: lung cancer cell line H358 having the KRAS G12C variant; experiment: SynergyScreen determination of combination concentration (ATPlite 1Step cell viability); assay type: cell-based; conditions: EFFECT20 applied as final treatment concentration in the combination experiment
Experimental: The cells were treated by adding 5 µL of a test solution of Example B01 per well to a 384 well plate in which the lung cancer cell line H358 having the KRAS G12C variant was dispensed so that the final concentration of the substance was 31.6 µM to 0.00316 µM in 50 µL of the solution per well. The cells treated with Example B01 were cultured under conditions of 37 °C and 5% carbon dioxide for 72 h or 120 h. In order to measure cell viability, each well was treated with 24 µL of ATPlite 1Step™ (PerkinElmer) solution, then mixed for 2 minutes, and reacted by blocking light for 5 minutes, and then the luminescence signal was measured using an Envision multilabel reader (PerkinElmer). The cell viability was determined according to the formula below, and the concentration (EFFECT20) of Example B01 that induces 20% cell death was calculated using IDBS XLfit 5. The EFFECT20 concentration of Example B01 determined through the experiment was applied as the final treatment concentration of Example B01 during the combination effect experiment. [formula]
In order to confirm the effect of Example B01 in combination with various anticancer agents, a total of 42 anticancer agents, including cytotoxic anticancer agents and targeted anticancer agents, were used for evaluation (Table 31). […]

[3] = Cell viability with a combined anticancer agent plus Example B01 (Synergy 1 / Synergy 2); assay type: cell-based; conditions: culture time 72 h; printed in the anticancer agent concentration column

Structure (SMILES) | cell viability ([1]; INK-128 (3.2-100 nM) in combination with Example 295 (0-300 nM) compared to INK-128 alone, 72 h, FIG. 1) | cell viability ([1]; sotorasib (0.14-10 nM) in combination with Example 295 (0-300 nM) compared to sotorasib alone, FIG. 2) | IC50 (KRAS^G12C::SOS1) [nM] | IC50 (SOS1) [nM] | concentration (EFFECT20) that induces 20% cell death ([2]; culture time 72 h) [nM] | concentration (EFFECT20) that induces 20% cell death ([2]; culture time 120 h) [nM] | concentration dependence of the effect of the anticancer agent on cell viability [3]
CNCc1ccc(Cl)cc1-c1ccc([C@@H](C)NC(=O)c2ccc(=O)n(-c3ccccc3F)n2)s1 [Example 295, N-[(1R)-1-[5-[5-chloro-2-(methylaminomethyl)phenyl]-2-thienyl]ethyl]-1-(2-fluorophenyl)-6-oxo-pyridazine-3-carboxamide] | decreased | decreased | < 1000 | – | – | – | –
C[C@@H](NC(=O)c1ccc(=O)n(-c2cncc(-c3cnnn3C)c2)n1)c1cccc(C(F)(F)F)c1F [Example B01, N-[(1R)-1-[2-fluoro-3-(trifluoromethyl)phenyl]ethyl]-1-[5-(3-methyltriazol-4-yl)-3-pyridyl]-6-oxo-pyridazine-3-carboxamide] | – | – | < 1000 | < 1000 | 1854 | 652 | –
C[C@]12C=CC(=O)C=C1CC[C@@H]1[C@@H]2[C@@H](O)C[C@@]2(C)[C@H]1CC[C@]2(O)C(=O)CO [Prednisolone, prednisolone] | – | – | – | – | – | – | No concentration -dependent change
